According to patent US6984619B1, “Method for protection against tumor metastasis formation” (Arch Development Corporation, priority 1999, dated 2006):
Entries after “also recorded” stand apart in the source; their conditions may differ.

How the values were obtained:
MMP-2 = target: T1, MMP-2 (Homo sapiens, UniProt P08253); test: Gelatin zymography of medium from treated U251 glioma cells, MMP-2; assay type: cell-based; settings: for reduction of MMP-2 activity/secretion: 10 mM; for reduction of MMP-2 activity/secretion / inhibition of MMP-2 activity/secretion: 24 h
T1 construct: Medium was isolated at the indicated times, centrifuged at 1000 rpm for 5 min to remove debris; endogenous in cells; host or cells: U251 human glioma cells (serum-free conditioned medium)
T1 sequence (P08253 110-660): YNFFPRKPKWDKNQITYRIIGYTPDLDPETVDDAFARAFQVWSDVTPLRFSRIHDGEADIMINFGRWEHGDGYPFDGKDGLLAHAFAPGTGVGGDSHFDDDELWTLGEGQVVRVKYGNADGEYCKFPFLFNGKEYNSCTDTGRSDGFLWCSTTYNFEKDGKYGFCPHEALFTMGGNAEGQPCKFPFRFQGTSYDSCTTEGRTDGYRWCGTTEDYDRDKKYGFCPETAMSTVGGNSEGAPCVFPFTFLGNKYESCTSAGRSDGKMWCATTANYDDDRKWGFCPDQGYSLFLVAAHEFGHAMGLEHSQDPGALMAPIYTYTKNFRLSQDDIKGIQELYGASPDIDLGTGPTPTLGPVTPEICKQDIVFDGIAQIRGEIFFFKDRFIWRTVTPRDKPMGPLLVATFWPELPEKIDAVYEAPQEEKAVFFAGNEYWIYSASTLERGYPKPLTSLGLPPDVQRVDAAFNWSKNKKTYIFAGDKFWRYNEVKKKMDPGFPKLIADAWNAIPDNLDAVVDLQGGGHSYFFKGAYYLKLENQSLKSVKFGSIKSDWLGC
Description: (§1) U251 Glioma Cells were grown to confluence in 6-well plates. Medium was removed, the cells washed twice with 37° C. PBS, and serum-free medium added. The cells were treated as follows: • Control—24 h, 48 h 72 h • 40 μM SH—24 h, 48 h 72 h (continuous exposure) • 10 ng/ml TNFα—24 h, 48 h, 72 h (continuous exposure). Medium was isolated at the indicated times, centrifuged at 1000 rpm for 5 min to remove debris, and stored at −80° C. until use. Protein was quantitated using the Bradford method. 252 ng of protein was loaded on 10% zymogram (gelatin) gels (Novex, San Diego, Calif.) and electrophoresed at 125 volts for 90 min in Tris-Glycine SDS buffer. After running, the gels were incubated in zymogram renaturing buffer (100 ml) for 30 min at room temperature with gentle agitation. The buffer was removed and fresh zymogram developing buffer (100 ml) added and the gels incubated at 37° C. overnight with gentle agitation. The following day the gels were stained with 0.5% coomassie blue R-250 for 30 min, and destained. Areas of protease activity show up as clear bands. This assay will detect MMP-2 and MMP-9.
(§2) Same protocol as above. Treatment conditions were as follows: • Control—24 h • 4 mM SH—24 h (continuous exposure) • 10 mM L-NAC—24 h (continuous exposure) • 10 mM L-NAC—24 h (continuous exposure) • 10 mM Captopril—24 h (continuous exposure) • 50 mM EDTA—24 h (chelator) • 4 mM SH+50 mM EDTA—24 h • 10 mM L-NAC+50 mM EDTA—24 h • 10 mM D-NAC+50 mM EDTA—24 h • 10 mM Captopril+50 mM EDTA—24 h • 40 μM SH—24 h • 10 ng/ml TNFα—24 h

MMP-9 = target: T2, MMP-9 (Homo sapiens, UniProt P14780); test: Gelatin zymography of medium from treated U251 glioma cells, MMP-9; assay type: cell-based; settings: for reduction of MMP-9 activity/secretion: 10 mM
T2 construct: Medium was isolated at the indicated times, centrifuged at 1000 rpm for 5 min to remove debris; endogenous in cells; host or cells: U251 human glioma cells (serum-free conditioned medium)
Description: as §1, §2

MnSOD gene expression = MnSOD gene expression in glioma cells (Northern blot); assay type: cell-based, human
From the text: FIG. 6. Effect of Amifostine on MnSOD Expression. Kinetics of manganese superoxide dismutase (MnSOD) gene expression induced in human glioma tumor cells as a function of time by WR1065, the active form of amifostine, are presented for comparison. Also included in the upper right hand corner is a representative Northern blot used to quantitate gene expression. Gene expression was induced over 3-fold as compared to untreated controls.
As previously discussed, manganese superoxide dismutase (MnSOD) has been identified as important anti-oxidant gene whose expression reduces the malignant/metastatic phenotype of cancer cells (Safford et al., 1995). Tumor cells are relatively lower in MnSOD than are normal cells. Increasing MnSOD in tumor cells causes them to loose their ability to be metastatic. As described in FIG. 6, exposure of tumor cells to WR-1065 leads to enhanced gene expression of MnSOD. […] The peak level of MnSOD expression was almost twice that observed in normal human endothelial cells exposed to WR-1065.

[1] = TNFα 10 ng/ml, continuous exposure

T2 sequence (P14780 94-707): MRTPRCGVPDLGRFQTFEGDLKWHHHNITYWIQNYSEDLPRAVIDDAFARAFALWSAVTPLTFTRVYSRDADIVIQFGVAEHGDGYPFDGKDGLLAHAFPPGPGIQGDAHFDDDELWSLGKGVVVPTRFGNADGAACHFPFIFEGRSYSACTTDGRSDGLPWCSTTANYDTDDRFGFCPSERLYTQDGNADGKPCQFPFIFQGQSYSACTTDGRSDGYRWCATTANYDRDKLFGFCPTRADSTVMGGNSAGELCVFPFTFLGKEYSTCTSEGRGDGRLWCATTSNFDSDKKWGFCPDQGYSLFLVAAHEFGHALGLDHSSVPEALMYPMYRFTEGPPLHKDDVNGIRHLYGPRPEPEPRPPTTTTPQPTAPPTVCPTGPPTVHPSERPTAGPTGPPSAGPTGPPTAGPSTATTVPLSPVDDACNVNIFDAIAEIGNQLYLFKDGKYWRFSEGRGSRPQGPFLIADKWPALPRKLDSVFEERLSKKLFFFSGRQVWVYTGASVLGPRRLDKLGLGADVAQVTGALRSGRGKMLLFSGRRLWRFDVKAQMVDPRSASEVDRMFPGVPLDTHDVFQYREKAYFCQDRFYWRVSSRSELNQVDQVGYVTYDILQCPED

Question: `C[C@H](CS)C(=O)N1CCC[C@H]1C(=O)O` [Captopril] was tested. Which “reduction of MMP-2 activity/secretion” value (MMP-2) did it give?
Answer: Its value is “completely inhibited”.

Question: And the “reduction of MMP-9 activity/secretion” value (MMP-9; 24 h)?
Answer: Its value is “completely inhibited”.

Question: With `CC(=O)N[C@H](CS)C(=O)O` [D-NAC] as the molecule, how does the “reduction of MMP-2 activity/secretion” value (MMP-2) read?
Answer: Its value is 74%.

Question: What about the “reduction of MMP-9 activity/secretion” value (MMP-9; 24 h) of the same molecule?
Answer: The value was 85%.

Question: For `O=C(O)CN(CCN(CC(=O)O)CC(=O)O)CC(=O)O` [EDTA], which “inhibition of MMP-2 activity/secretion” value (MMP-2; 50 mM EDTA) is on record?
Answer: Its value is “completely inhibiting; also recorded: completely inhibited; also recorded: completely blocked”.

Question: And the “inhibition of MMP-9 activity/secretion” value (MMP-9; 50 mM EDTA, 24 h)?
Answer: Its value is “completely inhibiting; also recorded: completely inhibited; also recorded: completely blocked”.

Question: Which “reduction of MMP-2 activity/secretion” value (MMP-2) does the source give for `CC(=O)N[C@@H](CS)C(=O)O` [L-NAC, N-acetyl-L-cysteine] here?
Answer: Its value is 69%.

Question: And the “reduction of MMP-9 activity/secretion” value (MMP-9; 24 h)?
Answer: The value was 73%.

Question: What does the source list for `NCCCNCCS` [WR-1065, 2-[(aminopropyl)amino]ethanethiol]?
Answer: ability to reduce MMP-2 secretion at 48 h and 72 h (MMP-2; 40 μM SH, continuous exposure): lost; reduction of MMP-2 activity/secretion relative to control (MMP-2; 40 μM WR-1065 (SH), 24 h (b119 prints 45 h)): 45%; MMP-2 activity, of control levels (MMP-2; 40 μM, 24 h exposure): 55%; inhibition of MMP-2 activity/secretion (MMP-2; 4 mM WR-1065 (SH)): completely inhibiting; inhibition of MMP-2 activity/secretion (MMP-2; 4 mM WR-1065 (SH), listed as SH): completely inhibited; ability to affect MMP-9 activity at 48 h and 72 h (MMP-9; 40 μM SH, continuous exposure): lost; reduction of MMP-9 activity relative to control (MMP-9; 40 μM WR-1065 (SH), 24 h): 5%; inhibition of MMP-9 activity/secretion (MMP-9; 4 mM WR-1065 (SH), 24 h): completely inhibiting; inhibition of MMP-9 activity/secretion (MMP-9; 4 mM WR-1065 (SH), 24 h, listed as SH): completely inhibited; peak level of MnSOD expression relative to normal human endothelial cells exposed to WR-1065 (MnSOD gene expression; U87 glioma cells versus normal human endothelial cells): almost twice; MnSOD gene expression during an additional 12 h (MnSOD gene expression; human glioma U87 cells, 12 to 24 h): remained at that elevated level; MnSOD gene expression enhanced (MnSOD gene expression; human glioma U87 cells, after 12 h): 2.5 fold; MnSOD gene expression induced as compared to untreated controls (MnSOD gene expression; human glioma tumor cells, FIG. 6 legend): over 3 fold

Question: For Tumor Necrosis Factor alpha [TNFα], which “suppression of MMP-2 secretion at 48 h and 72 h” value (MMP-2; [1]) is on record?
Answer: The value was “still able to suppress”.

Question: What about the “MMP-9 activity at 48 h and 72 h” value (MMP-9; [1]) of the same molecule?
Answer: Its value is “continued to cause enhanced activity”.
